The text below walks through data of patent US11479533B2, “Inhibitors of Rho associated coiled-coil containing protein kinase” (KADMON CORPORATION, LLC, priority 2017, dated 2022).

For data set [1], the system named is ppMlc (T18/S19) levels in A7R5 cells. In words: A7R5 in-cell ELISA assay (ppMlc). Type of data set: cell-based, rat. Conditions: Rattus norvegicus, A7R5, A7R5 cells. In outline:
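Rat aortic smooth muscle A7R5 cells in DMEM with 10% FBS, seeded 24 h, then treated 90 min with 9-point 2-fold compound dilutions. ppMlc (T18/S19) measured by colorimetric in-cell ELISA; cellular IC50 from nonlinear regression curve fit.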
On the technique in general: ELISA stands for enzyme-linked immunosorbent assay.

Data set [2] relates to ACTA2-promoter-driven-luciferase in NIH3T3 cells. In words: NIH3T3 Acta2-promoter driven-luciferase assay. Type of data set: cell-based. As to conditions: Mus musculus, plus TGFβ1, 24 hr, read-out: NIH3T3, Acta2-luc, IC50. The gist of the method: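 Stable NIH3T3 line carrying luciferase reporter under human ACTA2 promoter (−1000-1 bp); confluent cells given 9-point compound dilutions with TGFβ1 for 24 hr. Lysed cells read for luciferase; IC50 from nonlinear regression fit.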

In data set [3] the test system is human oligodendrocyte/neuron progenitor cells. In words: Aβ 1-42 induced cell death assay on human oligodendrocyte/neuron progenitors. Type of data set: cell-based. As to conditions: 3 μM, 10.5 μM Aβ1-42, 24 hour. On the procedure:
Aβ 1-42 induced cell death assay on human oligodendrocyte/neuron progenitors in 96-well plate. Cells were seeded on poly-L-ornithine and laminin coated plates at a density of 8,000 cells per well and maintained in expansion media until Day 3, then media was replaced with fresh spontaneous differentiation media containing testing compounds and IncuCyte Annexin V Red Reagent (1:200 dilution) (Essen BioScience Cat. No. 4641). After the pre-incubation period of 30 minutes at 37° C., 10.5 μM Aβ 1-42 (Bachem Product No. H-8146) was added directly in the pretreatment solution. Neurite length and total Annexin V positive area were analyzed by IncuCyte S3 Live Cell Analysis System every 2 hours.
In addition to promoting neuroregeneration, ROCK inhibitors have been reported to exert neuroprotective effects and prolong neuronal survival. Here we test the neuroprotective effect of ROCK inhibitors against Aβ1-42. Human oligodendrocyte/neuron progenitor cells were pre-incubated with ROCK inhibitors for 30 minutes before exposing to 10.5 μM Aβ1-42. IncuCyte Annexin V Red Reagent was added to culture media to label cell apoptosis. Pictures were taken by IncuCyte S3 and total Annexin V positive area was analyzed by IncuCyte S3 base software. Neurite length was quantified by IncuCyte NeuroTrack Software Module, see FIGS. 3b and 3c.

The subject of data set [4] is bleomycin induced lung fibrosis. The data set is described as follows: Bleomycin induced lung fibrosis in mice (therapeutic administration). Type of data set: in vivo, mouse. Conditions: oral once daily Day 7 to Day 20. On the procedure:
Bleomycin induced lung fibrosis in mice (therapeutic administration): Male C57B/L6 mice were housed for acclimation for no less than 7 days. After acclimation period, animals were randomly assigned to treatment groups. On day 0, mice were anesthetized with 5% isoflurane by inhalation for 10-15 mins and then suspended by their front teeth on a wire attached to a fixed animal operating plate. 50 μL of saline or bleomycin solution was administered via intratracheal instillation. Mice in treatment groups were intratracheally instilled with bleomycin hydrochloride (BLM) 2.0 U/kg (mg/kg) in sterile saline. On day 7 following bleomycin administration, half of the animals in vehicle group were sacrificed to establish a baseline for the level of fibrosis at the treatment initiation. Mice in normal control group received saline by p.o. once daily from Day 7 to Day 20. Treatment group mice received the compound dosed orally once daily from Day 7 to Day 20. On Day 20, 2-3 hours posted the last dose, all mice were sacrificed. Lungs were gently lavaged via the tracheal cannula with 0.8 mL of PBS containing 1% BSA and 0.6 mM EDTA. […] The activity of ROCK inhibitors in attenuating pulmonary fibrosis in a therapeutic dosing setting was assessed in a bleomycin-induced model, following intratracheal bleomycin installation to induce lung tissue damage and consequent fibrosis of the lung. […]

Data set [5] relates to histamine-induced vascular permeability. In words: Histamine-induced vascular permeability model in mice. Type of data set: in vivo, mouse. As to conditions: single oral dose 1 hr. prior to histamine injection. How it is done:
Histamine-induced vascular permeability model in mice: 7-8 weeks old Balb/c female mice were acclimated at least 3 days, and randomly assigned to groups. Animals were injected i.v. with 1% Evans Blue at a dose 100 μl/mouse. 10 minutes later animals in disease groups were given 1 μg of histamine in 20 μl PBS intradermally on the back and sacrificed 20 minutes after administration. 20 μL PBS were injected intradermal into the animal back in sham control. Vehicle and test articles were dosed via oral gavage accordingly. Positive control salbutamol was administered 15 minutes before Evans blue. 20 minutes post challenge with histamine, animals were euthanized. The skin was then inverted, the lesion diameters were measured. The area of the lesion was calculated and expressed in square millimeters. Following diameter measurements, Evan's Blue dye was extracted from the skin tissue and the optical density was measured. Data are calculated against a spiked in Evan's Blue standard curve. The extent of compound efficacy was quantitated by calculating both the overall skin spot area and the amount of Evans Blue dye permeating the skin. 20 Minutes post challenge with histamine, animals were euthanized, the lesion diameters were measured. The area of the lesion was calculated and expressed in square millimeters. […]

Like-named read-outs stand apart in the source and are kept apart here.

In general, IC50 refers to the concentration that inhibits the measured activity by half. For `CNC(C(=O)Nc1ccc(-c2cn[nH]c2)cc1)c1cccc(OC)c1` (stereo not drawn) [Example 2, N-(4-(1H-pyrazol-4-yl)phenyl)-2-(3-methoxyphenyl)-2-(methylamino)acetamide], the half-inhibitory concentration (IC50) in data set [1] (Table 2, read-out: pMLC IC50 (nM) A7R5) was 120 nM; in data set [1] (ppMlc (T18/S19), in-cell ELISA, read-out: ppMlc IC50), 86 nM; in data set [2] it was 352 nM. The “Aβ1-42 induced cell death (Annexin V area)” value in data set [3] was “significantly protect”. For the same compound, the “collagen amounts in the lungs (Masson's trichrome)” value in data set [4] is reported as “significantly lower”. For the same compound, in data set [5], the “vascular permeability induced by histamine (Evan's Blue extravasation)” value is given as “blocked the vascular permeability induced by histamine in a dose dependent manner”.
